Measurements as given in the kinase profiling compilation of Christmann-Franck et al. (2016).
Where “and” joins values, the source holds several entries; their conditions need not be identical. Equal entries are not always repeated.

What was measured:
Assay in all cases: Caliper, Mobility shift assay off-chip
CAMK4 (human) = CAMK4 (human) (UniProt Q16566)
AURKC (human) = AURKC (human) (UniProt Q9UQB9)
PRKD3 (human) = PRKD3 (human) (UniProt O94806)
FGFR4 (human) = FGFR4 (human) (UniProt P22455)
STK3 (human) = STK3 (human) (UniProt Q13188)
AKT1 (human) = AKT1 (human) (UniProt P31749)
RPS6KA3 KD1 KD2 (human) = RPS6KA3 KD1 KD2 (human) (UniProt P51812)
PRKCB2 (human) = PRKCB2 (human) (UniProt P05771)
MAPKAPK2 (human) = MAPKAPK2 (human) (UniProt P49137)
TSSK2 (human) = TSSK2 (human) (UniProt Q96PF2)
TSSK1B (human) = TSSK1B (human) (UniProt Q9BXA7)
CAMK2G (human) = CAMK2G (human) (UniProt Q13555)
FER (human) = FER (human) (UniProt P16591)
LYN (human) = LYN (human) (UniProt P07948)
FYN (human) = FYN (human) (UniProt P06241)
EGFR (human) = EGFR (human) (UniProt P00533)
RPS6KA5 KD1 KD2 (human) = RPS6KA5 KD1 KD2 (human) (UniProt O75582)
FGFR2 (human) = FGFR2 (human) (UniProt P21802)
MAPK11 (human) = MAPK11 (human) (UniProt Q15759)
MAPK13 (human) = MAPK13 (human) (UniProt O15264)
[1] = tested on: ABL1 (human), P00519 [Q252H]
PRKG1 (human) = PRKG1 (human) (UniProt Q13976)
PRKCG (human) = PRKCG (human) (UniProt P05129); settings: compound 0.1 µM
SGK2 (human) = SGK2 (human) (UniProt Q9HBY8)
AURKA (human) = AURKA (human) (UniProt O14965)
PRKCE (human) = PRKCE (human) (UniProt Q02156)
PDGFRA (human) = PDGFRA (human) (UniProt P16234)
CDK2 (human) = CDK2 (human) (UniProt P24941)
AURKB (human) = AURKB (human) (UniProt Q96GD4)
PRKCH (human) = PRKCH (human) (UniProt P24723)
RPS6KA2 KD1 KD2 (human) = RPS6KA2 KD1 KD2 (human) (UniProt Q15349)
[2] = tested on: FLT3 (human), P36888 [D835Y]
CAMK2D (human) = CAMK2D (human) (UniProt Q13557)

Chain of PRKG1 (human) (Q13976 whole entry, looked up): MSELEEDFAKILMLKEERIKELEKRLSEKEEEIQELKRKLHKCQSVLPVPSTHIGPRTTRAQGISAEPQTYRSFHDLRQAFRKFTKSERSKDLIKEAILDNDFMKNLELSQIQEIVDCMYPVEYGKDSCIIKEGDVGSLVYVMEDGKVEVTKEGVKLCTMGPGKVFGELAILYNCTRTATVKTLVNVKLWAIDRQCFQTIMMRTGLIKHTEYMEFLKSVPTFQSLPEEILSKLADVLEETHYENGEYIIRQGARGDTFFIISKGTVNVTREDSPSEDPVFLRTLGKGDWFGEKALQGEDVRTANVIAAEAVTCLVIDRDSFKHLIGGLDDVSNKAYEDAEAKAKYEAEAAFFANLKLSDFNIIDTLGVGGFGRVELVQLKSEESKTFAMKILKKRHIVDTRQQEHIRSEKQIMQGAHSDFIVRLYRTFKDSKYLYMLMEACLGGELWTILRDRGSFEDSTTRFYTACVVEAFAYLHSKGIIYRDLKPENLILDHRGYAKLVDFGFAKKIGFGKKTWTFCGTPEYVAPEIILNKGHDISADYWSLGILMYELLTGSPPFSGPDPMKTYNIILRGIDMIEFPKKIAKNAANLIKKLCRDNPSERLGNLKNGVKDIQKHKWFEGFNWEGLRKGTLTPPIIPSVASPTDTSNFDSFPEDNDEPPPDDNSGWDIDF
Chain of LYN (human) (P07948 whole entry, looked up): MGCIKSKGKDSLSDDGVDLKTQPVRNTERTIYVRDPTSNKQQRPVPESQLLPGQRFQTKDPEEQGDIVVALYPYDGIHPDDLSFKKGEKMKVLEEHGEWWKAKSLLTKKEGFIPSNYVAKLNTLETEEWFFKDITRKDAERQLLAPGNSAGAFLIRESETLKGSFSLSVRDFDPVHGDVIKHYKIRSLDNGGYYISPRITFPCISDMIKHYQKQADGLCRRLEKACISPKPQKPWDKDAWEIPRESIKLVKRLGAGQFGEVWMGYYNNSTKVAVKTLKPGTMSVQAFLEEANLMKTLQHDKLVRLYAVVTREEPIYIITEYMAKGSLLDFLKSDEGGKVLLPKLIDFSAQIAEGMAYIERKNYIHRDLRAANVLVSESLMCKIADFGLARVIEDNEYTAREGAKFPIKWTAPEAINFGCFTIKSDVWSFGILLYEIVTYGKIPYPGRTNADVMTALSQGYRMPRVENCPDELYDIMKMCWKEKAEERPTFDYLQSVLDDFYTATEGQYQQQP
Chain of PRKD3 (human) (O94806 whole entry, looked up): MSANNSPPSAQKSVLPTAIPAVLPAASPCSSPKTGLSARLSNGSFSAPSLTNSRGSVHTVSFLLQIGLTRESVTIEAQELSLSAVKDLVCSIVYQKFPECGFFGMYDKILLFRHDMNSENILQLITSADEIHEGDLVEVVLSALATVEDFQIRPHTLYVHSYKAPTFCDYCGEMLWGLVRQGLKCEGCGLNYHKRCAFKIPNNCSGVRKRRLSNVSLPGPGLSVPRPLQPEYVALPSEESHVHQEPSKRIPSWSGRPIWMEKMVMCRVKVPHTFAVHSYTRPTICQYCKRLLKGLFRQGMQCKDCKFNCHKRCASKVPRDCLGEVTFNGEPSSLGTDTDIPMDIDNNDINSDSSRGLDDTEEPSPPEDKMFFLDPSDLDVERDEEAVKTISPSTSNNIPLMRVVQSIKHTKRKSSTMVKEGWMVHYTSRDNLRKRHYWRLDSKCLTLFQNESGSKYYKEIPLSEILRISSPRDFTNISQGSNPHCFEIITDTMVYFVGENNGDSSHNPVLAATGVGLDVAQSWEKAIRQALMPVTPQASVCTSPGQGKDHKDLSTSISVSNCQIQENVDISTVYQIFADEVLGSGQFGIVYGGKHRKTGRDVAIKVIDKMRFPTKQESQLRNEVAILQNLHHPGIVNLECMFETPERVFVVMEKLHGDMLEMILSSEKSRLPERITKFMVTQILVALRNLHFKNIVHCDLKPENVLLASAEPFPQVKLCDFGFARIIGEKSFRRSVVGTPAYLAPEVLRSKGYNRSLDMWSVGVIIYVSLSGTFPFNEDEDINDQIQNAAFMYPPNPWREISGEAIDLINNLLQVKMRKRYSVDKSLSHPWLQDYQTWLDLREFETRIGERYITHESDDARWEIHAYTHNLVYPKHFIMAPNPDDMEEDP
Chain of AURKA (human) (O14965 whole entry, looked up): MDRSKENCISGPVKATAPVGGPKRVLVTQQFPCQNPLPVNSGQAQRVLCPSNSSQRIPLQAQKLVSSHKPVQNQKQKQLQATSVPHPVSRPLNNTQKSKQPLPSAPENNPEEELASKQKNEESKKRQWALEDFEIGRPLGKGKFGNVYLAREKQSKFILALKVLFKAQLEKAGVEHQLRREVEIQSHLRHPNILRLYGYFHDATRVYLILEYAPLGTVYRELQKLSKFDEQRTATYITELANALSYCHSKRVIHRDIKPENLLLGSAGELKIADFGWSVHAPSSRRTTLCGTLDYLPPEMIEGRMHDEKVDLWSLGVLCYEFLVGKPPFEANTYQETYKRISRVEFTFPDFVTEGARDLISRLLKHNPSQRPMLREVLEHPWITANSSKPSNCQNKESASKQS
Chain of AURKB (human) (Q96GD4 whole entry, looked up): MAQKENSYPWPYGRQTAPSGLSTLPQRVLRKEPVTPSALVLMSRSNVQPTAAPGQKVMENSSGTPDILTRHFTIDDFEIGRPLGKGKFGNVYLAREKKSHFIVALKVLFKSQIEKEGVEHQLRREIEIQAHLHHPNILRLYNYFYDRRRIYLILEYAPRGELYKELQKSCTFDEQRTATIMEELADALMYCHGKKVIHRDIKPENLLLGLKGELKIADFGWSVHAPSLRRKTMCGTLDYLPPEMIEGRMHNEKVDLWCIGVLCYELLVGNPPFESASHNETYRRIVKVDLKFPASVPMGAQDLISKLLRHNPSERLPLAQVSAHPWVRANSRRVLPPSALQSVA
Chain of TSSK2 (human) (Q96PF2 whole entry, looked up): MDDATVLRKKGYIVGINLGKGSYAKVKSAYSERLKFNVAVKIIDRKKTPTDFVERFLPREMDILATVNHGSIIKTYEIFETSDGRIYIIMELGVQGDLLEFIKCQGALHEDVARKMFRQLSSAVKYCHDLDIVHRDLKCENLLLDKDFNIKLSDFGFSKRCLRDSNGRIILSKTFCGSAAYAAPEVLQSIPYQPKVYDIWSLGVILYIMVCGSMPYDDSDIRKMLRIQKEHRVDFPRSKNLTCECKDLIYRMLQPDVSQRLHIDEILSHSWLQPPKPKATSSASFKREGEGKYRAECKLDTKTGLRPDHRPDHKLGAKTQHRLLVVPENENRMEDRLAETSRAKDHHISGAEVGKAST
Chain of CAMK4 (human) (Q16566 whole entry, looked up): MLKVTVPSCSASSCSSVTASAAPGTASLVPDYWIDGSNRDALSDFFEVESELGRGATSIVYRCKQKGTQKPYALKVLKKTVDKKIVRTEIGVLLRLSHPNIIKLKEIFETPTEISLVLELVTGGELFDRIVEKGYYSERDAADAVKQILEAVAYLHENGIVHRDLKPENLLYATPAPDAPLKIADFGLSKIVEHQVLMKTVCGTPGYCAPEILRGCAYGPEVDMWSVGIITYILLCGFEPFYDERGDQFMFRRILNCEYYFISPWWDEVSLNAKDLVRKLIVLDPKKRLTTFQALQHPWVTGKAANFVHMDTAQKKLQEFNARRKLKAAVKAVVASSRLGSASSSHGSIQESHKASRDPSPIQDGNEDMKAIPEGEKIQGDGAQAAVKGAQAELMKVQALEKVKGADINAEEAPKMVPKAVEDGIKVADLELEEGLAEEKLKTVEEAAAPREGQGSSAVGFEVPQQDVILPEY
Chain of PDGFRA (human) (P16234 whole entry, looked up): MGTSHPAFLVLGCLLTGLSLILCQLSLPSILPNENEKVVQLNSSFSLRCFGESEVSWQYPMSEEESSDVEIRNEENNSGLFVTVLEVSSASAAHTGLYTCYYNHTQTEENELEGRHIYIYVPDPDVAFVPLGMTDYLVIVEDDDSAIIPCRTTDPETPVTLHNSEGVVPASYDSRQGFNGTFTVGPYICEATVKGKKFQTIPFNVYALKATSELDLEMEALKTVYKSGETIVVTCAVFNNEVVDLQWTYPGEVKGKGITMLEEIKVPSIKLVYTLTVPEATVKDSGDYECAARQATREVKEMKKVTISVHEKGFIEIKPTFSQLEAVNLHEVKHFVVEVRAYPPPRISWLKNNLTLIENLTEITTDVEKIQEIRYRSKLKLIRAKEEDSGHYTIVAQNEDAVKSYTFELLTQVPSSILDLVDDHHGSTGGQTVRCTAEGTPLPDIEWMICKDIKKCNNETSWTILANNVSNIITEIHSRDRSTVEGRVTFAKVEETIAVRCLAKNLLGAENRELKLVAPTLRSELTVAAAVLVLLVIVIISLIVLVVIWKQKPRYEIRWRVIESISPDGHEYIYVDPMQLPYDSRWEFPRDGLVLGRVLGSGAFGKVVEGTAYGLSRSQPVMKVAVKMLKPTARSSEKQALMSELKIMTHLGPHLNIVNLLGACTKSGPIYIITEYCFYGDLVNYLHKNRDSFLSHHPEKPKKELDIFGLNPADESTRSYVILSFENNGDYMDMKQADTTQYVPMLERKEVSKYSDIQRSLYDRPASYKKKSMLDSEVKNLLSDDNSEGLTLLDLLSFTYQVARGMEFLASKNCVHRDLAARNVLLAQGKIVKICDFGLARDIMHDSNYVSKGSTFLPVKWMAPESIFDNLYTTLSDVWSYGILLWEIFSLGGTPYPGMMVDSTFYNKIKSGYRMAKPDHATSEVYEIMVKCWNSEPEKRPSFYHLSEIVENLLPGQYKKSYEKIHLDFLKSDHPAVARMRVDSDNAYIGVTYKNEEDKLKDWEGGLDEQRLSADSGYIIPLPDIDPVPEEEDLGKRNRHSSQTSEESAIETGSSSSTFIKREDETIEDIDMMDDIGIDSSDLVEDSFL

Cn1cc(-c2cnc3ccc4ccc(CS(N)(=O)=O)cc4c(=O)c3c2)cn1
inhibition (CAMK4 (human); compound 0.1 µM): -1.6% | inhibition (CAMK4 (human); compound 1.0 µM): -6.4% | inhibition (AURKC (human); compound 0.1 µM): 27.7% | inhibition (AURKC (human); compound 1.0 µM): 76.2% | inhibition (PRKD3 (human); compound 0.1 µM): -8.8% | inhibition (PRKD3 (human); compound 1.0 µM): -1.8% | inhibition (FGFR4 (human); compound 0.1 µM): 21.1% | inhibition (FGFR4 (human); compound 1.0 µM): 19.6% | inhibition (STK3 (human); compound 0.1 µM): 4.4% | inhibition (STK3 (human); compound 1.0 µM): 7.9% | inhibition (AKT1 (human); compound 0.1 µM): -2.2% | inhibition (AKT1 (human); compound 1.0 µM): 1.3% | inhibition (RPS6KA3 KD1 KD2 (human); compound 0.1 µM): 1.2% | inhibition (RPS6KA3 KD1 KD2 (human); compound 1.0 µM): -1.7% | inhibition (PRKCB2 (human); compound 0.1 µM): 2.6% | inhibition (PRKCB2 (human); compound 1.0 µM): -6% | inhibition (MAPKAPK2 (human); compound 0.1 µM): -2.6% | inhibition (MAPKAPK2 (human); compound 1.0 µM): 8% | inhibition (TSSK2 (human); compound 0.1 µM): -37% | inhibition (TSSK2 (human); compound 1.0 µM): 10.5% | inhibition (TSSK1B (human); compound 0.1 µM): -0.9% | inhibition (TSSK1B (human); compound 1.0 µM): 1% | inhibition (CAMK2G (human); compound 0.1 µM): -17.9% | inhibition (CAMK2G (human); compound 1.0 µM): -1.6% | inhibition (FER (human); compound 0.1 µM): -53.2% | inhibition (FER (human); compound 1.0 µM): -24.2% | inhibition (LYN (human); compound 0.1 µM): -8.7% | inhibition (LYN (human); compound 1.0 µM): -2.3% | inhibition (FYN (human); compound 0.1 µM): -3.7% | inhibition (FYN (human); compound 1.0 µM): 6% | inhibition (EGFR (human); compound 0.1 µM): 13.3% | inhibition (EGFR (human); compound 1.0 µM): 9.2% | inhibition (RPS6KA5 KD1 KD2 (human); compound 0.1 µM): 8% | inhibition (RPS6KA5 KD1 KD2 (human); compound 1.0 µM): 4.1% | inhibition (FGFR2 (human); compound 0.1 µM): 21.8% | inhibition (FGFR2 (human); compound 1.0 µM): 47.9% | inhibition (MAPK11 (human); compound 0.1 µM): -1.8% | inhibition (MAPK11 (human); compound 1.0 µM): -4.1% | inhibition (MAPK13 (human); compound 0.1 µM): -3.2% | inhibition (MAPK13 (human); compound 1.0 µM): -9.3% | inhibition ([1]; compound 0.1 µM): -0.1% | inhibition ([1]; compound 1.0 µM): 24.9% | inhibition (PRKG1 (human); compound 0.1 µM): -0.5% and 2.6% | inhibition (PRKG1 (human); compound 1.0 µM): 9.6% and -5.9% | inhibition (PRKCG (human)): -1.4% | inhibition (SGK2 (human); compound 0.1 µM): -0.9% | inhibition (SGK2 (human); compound 1.0 µM): 23.1% | inhibition (AURKA (human); compound 0.1 µM): 27.6% | inhibition (AURKA (human); compound 1.0 µM): 75.5% | inhibition (PRKCE (human); compound 0.1 µM): -4.6% | inhibition (PRKCE (human); compound 1.0 µM): 5.9% | inhibition (PDGFRA (human); compound 0.1 µM): -19.1% | inhibition (PDGFRA (human); compound 1.0 µM): 15.5% | inhibition (CDK2 (human); compound 0.1 µM): 1.2% | inhibition (CDK2 (human); compound 1.0 µM): -3.9% | inhibition (AURKB (human); compound 0.1 µM): 41.7% | inhibition (AURKB (human); compound 1.0 µM): 75% | inhibition (PRKCH (human); compound 0.1 µM): -6.7% | inhibition (PRKCH (human); compound 1.0 µM): 0.2% | inhibition (RPS6KA2 KD1 KD2 (human); compound 0.1 µM): -0.2% | inhibition (RPS6KA2 KD1 KD2 (human); compound 1.0 µM): 9% | inhibition ([2]; compound 0.1 µM): 19.1% | inhibition ([2]; compound 1.0 µM): 73.7% | inhibition (CAMK2D (human); compound 0.1 µM): 4.9% | inhibition (CAMK2D (human); compound 1.0 µM): 25.1%
